From patent US8513277B2, “Pyrrolo[3,2-C] pyridine derivatives and processes for the preparation thereof” (Yuhan Corporation, priority 2004, dated 2013)
Structures can show the parent of a compound that is named as a salt.

What was measured:
[1] = target: T1, H+/K+-ATPase (hog gastric vesicle) (Sus scrofa, UniProt P19156); assay: Inhibitory effects on proton pump (H+/K+-ATPase) activity; format: biochemical; conditions: K+ stimulated H+/K+-ATPase activity, hog gastric vesicles, Pi measured at 620 nm
T1 construct: used as an enzyme source of the in vitro enzyme reaction assay of proton pump; from tissue; host or cells: hog gastric fundic mucosa, membrane vesicles (sucrose/Ficoll gradient), lyophilized
Experimental: The hog fundic regions containing parietal and peptic cells were scraped with slide-glass. The collected cells were suspended in 10 ml of 0.25M sucrose buffer and homogenized using a tight-fitting Teflon-glass homogenizer. The homogenate was centrifuged for 35 min at 8,000 rpm and the pellet was discarded. The supernatant was further centrifuged for 75 min at 25,000 rpm. The resulting pellets were re-suspended in the sucrose buffer (10 ml), and then the suspension was laid onto discontinuous density gradients consisting of 0.25M sucrose buffer and isolation medium containing 9% Ficoll (w/w). After being centrifuged for 3 hours and 15 minutes at 100,000×g, the material at the interface of sucrose buffer and Ficoll solution was collected and then centrifuged for 40 minutes at 100,000×g. The resulting pellets were re-suspended in 1 ml of 5 mM […] buffer (pH 6.1). This material was lyophilized and stored at −70° C. and used as an enzyme source of the in vitro enzyme reaction assay of proton pump. The inhibitory effects of the compounds of the present invention against proton pump activity were evaluated in 96-well plate. In this assay, the K^+ specific H^+/K^+-ATPase activity was calculated based on the difference between the activity of H^+/K^+-ATPase activity with K^+ and without K^+ ion. In 96-well plate, 1% dimethylsulfoxide (DMSO) in buffer was added to negative and positive control groups and the diluted compounds of the present invention in buffer were added to test group. All assays were performed in 100 μl reaction volume at room temperature, and the hog gastric vesicle was kept in ice before use. […] Then lyophilized vesicle in 5 mM Pipes/Tris buffer (pH 6.1) was pre-incubated in the presence of various concentrations of test compounds. After a 5 minute incubation, negative and positive buffers were respectively added to the previous reaction mixture. As the substrate, ATP was added to the reaction buffer, and incubated for 30 minutes at 37° C. Enzymatic activity was stopped by the addition of colorimetric reagent (2× malachite green, 1× ammonium molybdate, 1× polyvinyl alcohol, 2× H2O) and the amount of mono phosphate (Pi) in the reaction was measured at 620 nm using the micro plate reader (Genios Pro, TECAN). The difference between the Pi production with K^+ and without K^+ is taken as K^+ stimulated H^+/K^+-ATPase activity. The IC50s of test compounds were calculated from each % inhibition value of compounds using the method of Litchfield-Wilcoxon (J. Pharmacol. Exp. Ther. (1949) 96, 99).

[2] = target: T2, hog gastric H+/K+-ATPase (Sus scrofa, UniProt P19156); assay: Reversible inhibition of hog gastric H+/K+-ATPase (washout method); format: biochemical
T2 construct: Gastric vesicles were prepared from hog fundic mucosa; from tissue; host or cells: hog fundic mucosa, gastric vesicles (microsomes), lyophilized
Experimental: Gastric vesicles were prepared from hog fundic mucosa using the method of Saccomani et al. (Saccomani G, Stewart H B, Shqw D, Lewin M and Sachs G, Characterization of gastric mucosal membranes. IX. Fraction and purification of K-ATPase-containing vesicles by zonal centrifugation and free-flow electrophoresis technique. Biochem. Biophy. Acta. (BBA)-Biomembranes 465, 311-330, 1977). This material was lyophilized and stored at −70° C. The protein content of gastric vesicles was determined by the Bradford method using bovine serum albumin as a standard (Bradford MM, A rapid and sensitive method for the quantitation of microgram quantities of protein utilizing the principle of protein-dye binding. Anal Biochem. 72, 248-254, 1976).
Activity of H^+/K^+-ATPase in hog microsome (lyophilized vesicle) was measured by the inorganic phosphate released from ATP using an one-step colorimetric detection method at the concentration at which the test compounds have 50% inhibition of the proton pump (Chan K M, Delfert D, and Junger K D, A direct colorimetric assay for Ca^2+-stimulated ATPase activity. Anal Biochem, 157, 375-380, 1986). […]

[3] = system: basal gastric acid secretion in pylorus-ligated rats; assay: Inhibitory effects on basal gastric acid secretion in pylorus-ligated rats (Shay's rat model); format: in vivo, rat (Sprague Dawley); conditions: oral, one hour before pylorus ligation, total acid output 5 hours after ligation, male SD rats
Experimental: Inhibitory effects of the compounds of the present invention on basal gastric acid secretion were performed according to Shay's rat model (Shay, H., et al., 1945, gastroenterology, 5, 43-61). Male Sprague Dawley (SD) rats (200±10 g body weight) were divided into […] (n=5) and fasted for 24 hours with free access to water. Control group was orally administered with 0.5% methylcellulose alone and the other groups were orally administered with test compounds suspended in 0.5% methylcellulose solution at doses of 1, 3 and 10 mg/kg/5 ml one hour before pylorus ligation.
Under ether anesthesia, the abdomens of the rats were incised and then the pylorus was ligated. 5 hours after ligation, the animals were sacrificed, and the gastric contents were collected. The collected contents were centrifuged at 1,000×g for 10 minutes to obtain the gastric juice. Total acid output was measured by 0.01 N NaOH volume (ueq/ml) for automatic titration of the gastric juice to pH 7.0 and the ED50s of test compounds were calculated using the Litchfield-Wilcoxon method. % inhibitory activity was calculated from the following equation and the results are shown in Table 2.
% inhibitory activity of test compound=(total acid output of control group−total acid output of the group treated with test compounds)/total acid output of control group×100

T1 sequence (P19156 2-1034 limits assumed): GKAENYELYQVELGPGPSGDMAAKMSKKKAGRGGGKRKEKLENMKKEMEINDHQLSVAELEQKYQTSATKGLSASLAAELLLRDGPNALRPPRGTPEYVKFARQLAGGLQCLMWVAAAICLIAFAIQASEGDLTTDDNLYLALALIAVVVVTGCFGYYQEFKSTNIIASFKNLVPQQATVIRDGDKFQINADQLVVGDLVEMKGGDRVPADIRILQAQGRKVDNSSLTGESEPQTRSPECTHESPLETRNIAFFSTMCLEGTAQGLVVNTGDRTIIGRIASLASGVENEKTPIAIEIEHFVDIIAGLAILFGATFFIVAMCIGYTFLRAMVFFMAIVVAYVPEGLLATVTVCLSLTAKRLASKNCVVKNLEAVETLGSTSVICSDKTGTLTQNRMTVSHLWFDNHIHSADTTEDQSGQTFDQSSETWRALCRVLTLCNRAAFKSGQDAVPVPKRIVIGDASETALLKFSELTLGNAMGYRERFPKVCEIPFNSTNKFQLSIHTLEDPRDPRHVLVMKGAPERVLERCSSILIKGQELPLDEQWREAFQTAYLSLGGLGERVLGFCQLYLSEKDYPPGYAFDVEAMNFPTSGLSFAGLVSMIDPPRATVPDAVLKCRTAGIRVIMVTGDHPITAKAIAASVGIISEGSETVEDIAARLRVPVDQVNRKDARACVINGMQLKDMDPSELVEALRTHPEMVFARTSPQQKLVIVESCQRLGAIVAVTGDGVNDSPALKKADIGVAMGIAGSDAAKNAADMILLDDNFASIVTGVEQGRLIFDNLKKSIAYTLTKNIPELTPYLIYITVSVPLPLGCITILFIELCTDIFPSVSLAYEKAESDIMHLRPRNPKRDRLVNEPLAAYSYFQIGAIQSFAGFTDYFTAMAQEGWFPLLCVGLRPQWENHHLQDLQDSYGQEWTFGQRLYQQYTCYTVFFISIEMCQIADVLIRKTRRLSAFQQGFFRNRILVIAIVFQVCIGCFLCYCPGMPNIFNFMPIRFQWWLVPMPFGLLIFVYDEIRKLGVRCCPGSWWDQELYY
T1 sequence (P18434 whole entry partner): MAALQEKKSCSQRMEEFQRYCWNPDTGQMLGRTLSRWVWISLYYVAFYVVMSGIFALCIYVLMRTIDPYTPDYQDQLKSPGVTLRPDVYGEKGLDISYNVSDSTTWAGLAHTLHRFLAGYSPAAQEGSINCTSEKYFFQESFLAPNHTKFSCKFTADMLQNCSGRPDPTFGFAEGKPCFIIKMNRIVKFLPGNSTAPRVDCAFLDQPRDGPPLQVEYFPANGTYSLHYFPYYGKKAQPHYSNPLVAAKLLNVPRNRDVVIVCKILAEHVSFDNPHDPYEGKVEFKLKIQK
T2 sequence (P19156 2-1034 limits assumed): as the sequence (P19156 2-1034 limits assumed) above
T2 sequence (P18434 whole entry partner): as the sequence (P18434 whole entry partner) above

SMILES	IC50 [1] [nM]	further results
Cc1[nH]c2ccnc(N3CCc4ccccc4C3)c2c1C [Example 1, 2,3-dimethyl-4-(1,2,3,4-tetrahydroisoquinolin-2-yl)-1H-pyrrolo[3,2-c]pyridine]	470	
Cc1c(C)n(C)c2ccnc(N3CCc4ccccc4C3)c12 [Example 6, 1,2,3-trimethyl-4-(1,2,3,4-tetrahydroisoquinolin-2-yl)-1H-pyrrolo[3,2-c]pyridine hydrochloride]	430	
Cc1c(C)n(CCO)c2ccnc(N3CCc4ccccc4C3)c12 [Example 20, 2,3-dimethyl-1-(2-hydroxyethyl)-4-(1,2,3,4-tetrahydroisoquinolin-2-yl)-1H-pyrrolo[3,2-c]pyridine hydrochloride]	< 4000	
Cc1c(Cc2ccccc2)c2c(N3CCc4ccccc4C3)nccc2n1C1CC1 [Example 61, 3-benzyl-1-cyclopropyl-2-methyl-4-(1,2,3,4-tetrahydroisoquinolin-2-yl)-1H-pyrrolo[3,2-c]pyridine hydrochloride]	280	
COCCn1c(C)c(Cc2ccccc2)c2c(N3CCc4ccccc4C3)nccc21 [Example 63, 3-benzyl-1-(2-methoxyethyl)-2-methyl-4-(1,2,3,4-tetrahydroisoquinolin-2-yl)-1H-pyrrolo[3,2-c]pyridine hydrochloride]	< 4000	
Cc1c(Cc2ccccc2)c2c(N3CCc4ccccc4C3)nccc2n1CC1OCCO1 [Example 65, 3-benzyl-1-([1,3]dioxolan-2-ylmethyl)-2-methyl-4-(1,2,3,4-tetrahydroisoquinolin-2-yl)-1H-pyrrolo[3,2-c]pyridine hydrochloride]	2120	
Cc1[nH]c2ccnc(NCc3ccc(F)cc3)c2c1Cc1ccccc1 [Example 71, 3-benzyl-2-methyl-4-(4-fluorobenzylamino)-1H-pyrrolo[3,2-c]pyridine hydrochloride]	530	

Continued, in another order:

IC50 [1] [nM]	SMILES	further results
2050	COCCn1c(C)c(C)c2c(N3CCc4ccccc4C3)nccc21 [Example 3, 2,3-dimethyl-1-(2-methoxyethyl)-4-(1,2,3,4-tetrahydroisoquinolin-2-yl)-1H-pyrrolo[3,2-c]pyridine hydrochloride]	
1030	CCn1c(C)c(C)c2c(N3CCc4ccccc4C3)nccc21 [Example 7, 1-ethyl-2,3-dimethyl-4-(1,2,3,4-tetrahydroisoquinolin-2-yl)-1H-pyrrolo[3,2-c]pyridine hydrochloride]	
90	Cc1[nH]c2ccnc(N3CCc4ccccc4C3)c2c1Cc1ccccc1.Cl [Example 55, 3-benzyl-2-methyl-4-(1,2,3,4-tetrahydroisoquinolin-2-yl)-1H-pyrrolo[3,2-c]pyridine hydrochloride]	inhibition of H+/K+-ATPase activity after washout ([2]; after washout, compared with non-treated group): did not inhibit; inhibition of H+/K+-ATPase activity before washout ([2]; before washout, compound at the concentration giving 50% inhibition): 50%; ED50 [3]: 1.6 mg/kg
230	Cc1c(Cc2ccccc2)c2c(N3CCc4ccccc4C3)nccc2n1C.Cl [Example 56, 3-benzyl-1,2-dimethyl-4-(1,2,3,4-tetrahydroisoquinolin-2-yl)-1H-pyrrolo[3,2-c]pyridine hydrochloride]	ED50 [3]: 2.9 mg/kg
< 4000	Cc1c(Cc2ccccc2)c2c(N3CCc4ccccc4C3)nccc2n1Cc1ccccc1 [Example 66, 1,3-dibenzyl-2-methyl-4-(1,2,3,4-tetrahydroisoquinolin-2-yl)-1H-pyrrolo[3,2-c]pyridine hydrochloride]	
220	Cc1[nH]c2ccnc(N3CCc4ccccc4C3)c2c1Cc1ccccc1 [Example 70, 3-benzyl-2-methyl-4-(1,2,3,4-tetrahydroisoquinolin-2-yl)-1H-pyrrolo[3,2-c]pyridine sodium]	
